Molecules are shown by their SMILES.

Results on 1 compound are retold here after patent publication US12214008B2, “Protein interfaces” (SyntheX, Inc., priority 2016, dated 2025).

The subject of one test is A549 cells. Nature of the test: xCELLigence cell death assay. The class given is cell-based. Particulars: FIG. 15. As for the experimental part:
(§1) To optimize cellular activity, compounds were tested in xCELLigence cell death assays against various cell lines. An example of the workflow used is shown using A549 cells and compound 10 in FIGS. 15 and 16. […] Data from xCELLigence traces at different compound concentrations from FIG. 15 was then used to generate a dose-response curve, which was then subjected to nonlinear regression using a sigmoidal dose-response model to generate IC50s and R2 values for cell death for each compound/cell line combination (FIG. 16).

In another test the target is T1, RAD51 (Homo sapiens, UniProt Q06609).
T1 sequence (Q06609 1-339): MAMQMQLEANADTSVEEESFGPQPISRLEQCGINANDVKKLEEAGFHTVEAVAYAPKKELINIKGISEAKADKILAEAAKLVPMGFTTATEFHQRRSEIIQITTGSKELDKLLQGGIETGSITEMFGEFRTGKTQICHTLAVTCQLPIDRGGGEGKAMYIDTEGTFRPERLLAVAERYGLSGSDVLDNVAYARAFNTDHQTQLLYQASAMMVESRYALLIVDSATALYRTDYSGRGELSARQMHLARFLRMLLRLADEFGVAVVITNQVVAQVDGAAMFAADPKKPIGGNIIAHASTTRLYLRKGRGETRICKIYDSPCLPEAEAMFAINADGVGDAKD
In words: microscale thermophoresis. Format: binding. As for the experimental part:
To test the interaction between calcium binding and peptide binding to RAD51, the Kds of active (Compound 5, 10) peptides for RAD51 were tested by a microscale thermophoresis assay, and the Kd of compound 5 was additionally performed in the presence of 1 mM calcium.
Microscale thermophoresis was performed as previously described (see, for e.g. Jerabek-Willemsen, M., Wienken, C. J., Braun, D., Baaske, P. & Duhr, S. Molecular interaction studies using microscale thermophoresis. Assay Drug Dev. Technol. 9, 342-353 (2011)). The affinity of the Compound was measured using the Monolith NT.115 from Nanotemper Technologies. Rad51 was fluorescently labelled according to the manufacturer's protocol and the labelled protein used for each assay was about 500 nM. A solution of unlabelled peptide was diluted for appropriate serial concentration gradient. The samples were loaded into silica capillaries (Polymicro Technologies). Measurements were performed at room temperature in buffer containing PBS, 0.1% Tween 20, 0.5 mM ATP, 2.5 uM ssDNA, with 1 mM CaCl2 (when mentioned). Measurements were done using 12% LED power and 60% MST power. The assays were repeated three times for each affinity measurement. Data analyses were performed using Nanotemper Analysis software and OriginPro 8.0 software provided by the manufacturer.
(Microscale thermophoresis detects binding through changes in fluorescence in a small temperature gradient.)

A further test relates to SSP-25 cells. In words: xCELLigence cell death assay. The class given is cell-based. Particulars: 10 μM compound 10 alone. As for the experimental part:
Further, singly-dosed cells continued to recover, which indicated reduced general cytotoxicity of the compound in the media or the lysed cells.
as §1
To further investigate the hypothesis that peptide binding to RAD51 in cells causes cell death via increases in intracellular free calcium levels, compound 10 alone and in combination with two different intracellular calcium chelators (1,2-Bis(2-aminophenoxy) ethane-N,N,N′,N′-tetraacetic acid tetrakis(acetoxymethyl ester) aka “BAPTA-AM”, and ammoniated ruthenium oxychloride aka “ruthenium red”) was tested in an xCELLigence™ cell death assay as in Example 3. The intracellular calcium chelators alone were also evaluated on the cells.

For a further test, the system named is A549 xenograft. In words: athymic mouse A549 xenograft model. Format: in vivo, mice. As for the experimental part: Female athymic nu/nu mice (6-8 weeks old) were purchased from Simonsen labs (n=12) and were housed at the Murigenics vivarium in Vallejo. The mice were acclimated to the setting of the vivarium for 5 days and maintained on a standard chow diet; 12:12 dark/light cycle; and group housed (3 mice per cage) in hepa-filtered cages. After acclimation, each mouse was injected subcutaneously (lower left abdominal flank) with 5×10^6 A549 (ATCC: CCL-185) cells mixed with 1:1 (v/v) with Matrigel solution. When the tumors reached a volume of ˜100 mm3, the mice were divided into separate treatment groups for the desired treatments. Experiments using both intra-tumoral (IT) and intraperitoneal (IP) administration were performed and the data are reported in FIG. 19.
Mice prepared as described above were divided into 4 groups: • Group 1: were not treated with anything (n=3) • Group 2: received an intra-tumoral injection of 50 microliters of Phosphate Buffered Saline (mock) (n=3) • Group 3: received an intra-tumoral injection of 50 microliters of 10 mg/ml compound 10 in Phosphate Buffered Saline (n=3) • Group 4: received an intra-tumoral injection of 50 microliters of 20 mg/ml compound 10 in Phosphate Buffered Saline (n=3)
The 50 microliter injections were carried out with a (30 g needle). The injections were administered on day zero and then again on day 3. The length (L) and the width (W) of the tumor mass was measured with a Vernier caliper and the tumor volume (V) was calculated as V=(L×W^2)/2. The relative tumor volume of each tumor mass on each measurement day was normalized against the initial volume of the same mass on day zero right before initiation of injections. […]
The injections were carried out with a 30 g needle. […] The length (L) and the width (W) of the tumor mass was measured with a Vernier caliper and the tumor volume (V) was calculated as V=(L×W^2)/2. […]

In the case of `CSCC[C@@H](NC(=O)[C@@H](CC(C)C)NC(C)=O)C(=O)N[C@H](CCCNC(=N)N)C(=O)N[C@H](CO)C(=O)N[C@@H](C(=O)N[C@H](CCCNC(=N)N)C(=O)N[C@H](CC(C)C)C(=O)N[C@H](CCCNC(=N)N)C(=O)N[C@@H](C(=O)NCC(=O)N[C@H](CC(C)C)C(=O)N[C@H](CCCNC(=N)N)C(=O)N[C@H](CCCCN)C(=O)N[C@H](CCCNC(=N)N)C(=O)N[C@H](CCCNC(=N)N)C(=O)N[C@H](CCCNC(=N)N)C(=O)N[C@H](CCCNC(=N)N)C(=O)N[C@H](CCCNC(=N)N)C(=O)N[C@H](CCCNC(=N)N)C(=O)N[C@H](CCCNC(=N)N)C(N)=O)C(C)C)C(C)C` [Compound 10, Ac-lmrsvrlrvGlrkrrrrrrr-NH2], the “cell killing of A549 cells (cell index)” value in the test on A549 cells is on record as “cell killing of A549 cells”. For the same compound, the Kd on RAD51 (PBS) was 8.55 nM; at RAD51 (without added calcium), approximately 8 nM. For the same compound, in the test on SSP-25 cells, the “cell death of SSP-25 cells, compound alone” value is given as “significant cell death”. The “relative tumor volume, intra-tumoral dosing” value in the test with A549 xenograft (50 microliters of 10 or 20 mg/ml intra-tumoral on day 0 and day 3, measured days 0, 3, 6) is “measurable decreases in tumor size as early as day 3”. Besides, the “relative tumor volume, intra-peritoneal dosing” value with A549 xenograft (125 microliters of 3 mg/ml intra-peritoneal on day 7, measured days 0-10) is “measurable decreases in tumor size as early as 3 days after injection (day 10)”. In addition, the tumor volume entry in the test with A549 xenograft (FIG. 19, intratumoral and intraperitoneal) is recorded as “significant effects on tumor volume after only a few days of treatment”.

For orientation: Kd means the free concentration of one partner at which half of the binding sites on the other are occupied at equilibrium, for simple one-to-one binding.
